Source: the NIST ThermoML archive (doi:10.1016/j.fluid.2006.03.002)
Numbers after ± are expanded uncertainties.

Assay: activity coefficient (dimensionless); of the first substance listed, at infinite dilution; xn = mol fraction of the nth substance listed
Conditions: Liquid, Chromatography, x1 = 0

| Compound | activity coefficient (308.15 K) | activity coefficient (318.15 K) | activity coefficient (328.15 K) |
| --- | --- | --- | --- |
| C=CCCCCC [1-heptene] + CCCC[P+](C)(CCCC)CCCC.COS(=O)(=O)[O-] | 8.2 ± 0.6 | 8 ± 0.5 | 7.1 ± 0.5 |
| C#CCCCC [1-hexyne] + CCCC[P+](C)(CCCC)CCCC.COS(=O)(=O)[O-] | 1.8 ± 0.1 | 1.7 ± 0.1 |  |
| c1ccccc1 [benzene] + CCCC[P+](C)(CCCC)CCCC.COS(=O)(=O)[O-] | 1 ± 0.1 | 1 ± 0.1 | 0.9 ± 0.1 |
| C1CCCCCC1 [cycloheptane] + CCCC[P+](C)(CCCC)CCCC.COS(=O)(=O)[O-] | 6.5 ± 0.4 | 6.4 ± 0.4 | 5.3 ± 0.4 |
| C1CCCCC1 [cyclohexane] + CCCC[P+](C)(CCCC)CCCC.COS(=O)(=O)[O-] | 5.5 ± 0.4 | 5.4 ± 0.4 | 4.6 ± 0.3 |
| C1CCCC1 [cyclopentane] + CCCC[P+](C)(CCCC)CCCC.COS(=O)(=O)[O-] | 4.5 ± 0.3 | 4.3 ± 0.3 | 3.5 ± 0.2 |
| CCCCCCC [heptane] + CCCC[P+](C)(CCCC)CCCC.COS(=O)(=O)[O-] | 13.4 ± 0.9 | 12.2 ± 0.8 | 10.7 ± 0.7 |
| C=CCCCC [hex-1-ene] + CCCC[P+](C)(CCCC)CCCC.COS(=O)(=O)[O-] | 6.4 ± 0.4 | 6 ± 0.4 | 5.3 ± 0.4 |
| CCCCCC [hexane] + CCCC[P+](C)(CCCC)CCCC.COS(=O)(=O)[O-] | 10.3 ± 0.7 | 9.5 ± 0.7 | 8.4 ± 0.6 |
| C=CCCCCCC [oct-1-ene] + CCCC[P+](C)(CCCC)CCCC.COS(=O)(=O)[O-] | 10.1 ± 0.7 | 10 ± 0.7 | 8.9 ± 0.6 |
| CCCCCCCC [octane] + CCCC[P+](C)(CCCC)CCCC.COS(=O)(=O)[O-] | 17.3 ± 1.2 | 15.9 ± 1.1 | 13.8 ± 0.9 |
| CCCCC [pentane] + CCCC[P+](C)(CCCC)CCCC.COS(=O)(=O)[O-] | 8.1 ± 0.6 | 7.7 ± 0.5 | 6.7 ± 0.5 |
